Test results as given in patent US9717725B2, “Use of opioid antagonists” (THE UNIVERSITY OF CHICAGO, priority 2005, dated 2017).
“Also recorded” adds a separate entry of the source.

What was measured:
mu-opioid receptor = mu-opioid receptor (Homo sapiens, UniProt P35372); test: Serine/threonine phosphorylation of the mu-opioid receptor in EC (Example 9); type: cell-based; conditions: for induction of serine/threonine phosphorylation of the mu-opioid receptor: EC
RhoA = RhoA activation assay (RBD bead pull-down, immunoblot); type: cell-based, human; conditions: EC
[1] = test system: human pulmonary microvascular endothelial cells (HPMVEC); test: Human pulmonary microvascular EC proliferation assay (CellTiter96 MTS); type: cell-based; conditions: for agonist-induced EC proliferation: serum-free media with agonist, MTS assay
[2] = test system: human pulmonary microvascular endothelial cells (HPMVEC); test: Human pulmonary microvascular EC migration assay (Transwell); type: cell-based; conditions: for agonist-induced EC migration (% migration): agonist in lower chamber, Transwell
VEGF receptor 2 (Flk-1) = test: Tyrosine phosphorylation of VEGF receptor 2 (immunoprecipitation/immunoblot); type: cell-based, human; conditions: HPMVEC
S1P3 receptor = test: Tyrosine phosphorylation of the S1P3 receptor in EC (Example 9); type: cell-based, human; conditions: for induction of tyrosine phosphorylation of the S1P3 receptor: EC
PDGF receptor = test: Tyrosine phosphorylation of the PDGF receptor in EC (Example 9); type: cell-based, human; conditions: for induction of tyrosine phosphorylation of the PDGF receptor: EC
VEGF receptor = test: Tyrosine phosphorylation of the VEGF receptor in EC (Example 9); type: cell-based, human; conditions: for induction of tyrosine phosphorylation of the VEGF receptor: EC
VEGF receptor 1 (Flt-1) = test: Tyrosine phosphorylation of VEGF receptor 1 (immunoprecipitation/immunoblot); type: cell-based, human; conditions: HPMVEC
[3] = test system: Lewis lung carcinoma (LLC) cells; test: LLC cell invasion assay (Chemicon Cell Invasion Assay Kit); type: cell-based; conditions: methylnaltrexone (10 nM or 100 nM)
[4] = doses maintaining plasma levels about 25 and 150 ng/mL (Yuan et al.); cited from earlier work
tumors = test: Treatment of tumor-bearing mice (Examples 4-7); type: in vivo; conditions: eight weeks; for tumor growth and angiogenesis: antagonist orally 5 mg/kg/day with morphine 0.5 mg/kg/day; for angiogenesis and tumor growth, combination of opioid, opioid antagonist and anticancer agent: with morphine and bevacizumab (Avastin) 5 mg/kg every 14 days
[5] = test system: microvascular endothelial cells; test: VEGF induced proliferation of endothelial cells, combination (Example 10); type: cell-based; conditions: combination of methylnaltrexone and 5-FU
[6] = test system: Lewis lung carcinoma (LLC) tumor; test: LLC flank tumor model, continuous MNTX infusion; type: in vivo, C57BL/6J mice; conditions: for appearance of macrometastases in the lungs / appearance of micrometastases in the lungs: continuous infusion 10 mg/kg/day
[7] = test system: SW 480 human colorectal cancer cell line; test: Effects on SW 480 cancer cell line
[8] = test system: Lewis lung carcinoma (LLC) cells; test: LLC cell proliferation in vitro; type: cell-based; conditions: treatment in vitro with methylnaltrexone
tumor = test: Study in human cancer patients (Examples 6-7); type: in vivo; conditions: antagonist orally 5 mg/kg/day for eight weeks with opioid and bevacizumab (Avastin)
[9] = test system: microvascular endothelial cells; test: VEGF induced migration of endothelial cells, combination (Example 10); type: cell-based; conditions: combination of methylnaltrexone and Bevacizumab
[10] = test system: proliferative retinopathy; conditions: sickle cell disease (Gupta et al., personal communication); cited from earlier work
Flk-1 expression = conditions: morphine-treated mice versus controls (K. Gupta, personal communication); cited from earlier work
[11] = J. Foss, et al.; cited from earlier work
[12] = pretreatment with MNTX 0.1 μM, 1 hour
[13] = summary statement, concentration dependence

Chain of mu-opioid receptor (P35372 whole entry): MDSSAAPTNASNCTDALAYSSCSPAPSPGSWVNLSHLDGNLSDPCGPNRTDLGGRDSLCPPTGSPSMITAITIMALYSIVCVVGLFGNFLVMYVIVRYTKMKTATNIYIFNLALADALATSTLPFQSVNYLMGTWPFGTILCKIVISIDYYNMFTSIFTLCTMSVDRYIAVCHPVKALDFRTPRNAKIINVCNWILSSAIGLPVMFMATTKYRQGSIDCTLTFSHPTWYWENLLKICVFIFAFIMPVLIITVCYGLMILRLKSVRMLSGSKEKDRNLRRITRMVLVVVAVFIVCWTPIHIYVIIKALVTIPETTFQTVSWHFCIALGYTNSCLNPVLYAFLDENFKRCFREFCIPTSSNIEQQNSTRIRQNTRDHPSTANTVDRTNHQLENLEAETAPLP

PDGF
induction of serine/threonine phosphorylation of the mu-opioid receptor (mu-opioid receptor): induced serine/threonine phosphorylation | RhoA activation by agonist (RhoA): activation | agonist-induced EC proliferation [1]: induced proliferation | agonist-induced EC migration (% migration) [2]: induced

C[C@@H](NC(=O)[C@@H](N)Cc1ccc(O)cc1)C(=O)NCC(=O)N(C)[C@@H](Cc1ccccc1)C(=O)NCCO [DAMGO, [D-Ala^2, N-McPhe^4, Gly^5-ol]-enkephalin]
RhoA activation by agonist (RhoA): stimulate RhoA activation | induction of tyrosine phosphorylation of VEGF receptor 2 (Flk-1) (VEGF receptor 2 (Flk-1)): induce tyrosine phosphorylation | induction of tyrosine phosphorylation of the S1P3 receptor (S1P3 receptor): induced tyrosine phosphorylation | induction of tyrosine phosphorylation of the PDGF receptor (PDGF receptor): induced tyrosine phosphorylation | agonist-induced EC proliferation [1]: stimulate HPMVEC proliferation; also recorded: induced proliferation | induction of tyrosine phosphorylation of the VEGF receptor (VEGF receptor): induced tyrosine phosphorylation | induction of tyrosine phosphorylation of VEGF receptor 1 (Flt-1) (VEGF receptor 1 (Flt-1)): induce tyrosine phosphorylation | agonist-induced EC migration (% migration) [2]: induce HPMVEC migration; also recorded: induced

C[N@+]1(CC2CC2)CC[C@]23c4c5ccc(O)c4O[C@H]2C(=O)CC[C@@]3(O)[C@H]1C5 [methylnaltrexone, N-methylnaltrexone]
reduction of LLC invasion [3]: significantly reduced; also recorded: dose-dependent inhibition | tolerability [4]: well tolerated | tumor growth and angiogenesis (tumors): reduction in tumor growth and angiogenesis | angiogenesis and tumor growth, combination of opioid, opioid antagonist and anticancer agent (tumors): enhanced result | attenuation of agonist induced mu-opioid receptor phosphorylation (mu-opioid receptor; MNTX pretreatment of EC): attenuated | inhibition of agonist-induced RhoA activation (RhoA; agonists morphine, DAMGO, VEGF (S1P, PDGF), listed as MNTX): inhibited; also recorded: attenuated | inhibition of VEGF induced proliferation of endothelial cells by the combination [5]: synergistically inhibit | attenuation of VEGF induced tyrosine phosphorylation of VEGF receptor 2 (VEGF receptor 2 (Flk-1)): attenuates | block of MS and DAMGO induced tyrosine phosphorylation of VEGF receptor 2 (Flk-1) (VEGF receptor 2 (Flk-1)): blocked | attenuation of agonist induced S1P3 receptor phosphorylation (S1P3 receptor; MNTX pretreatment of EC): attenuated | appearance of macrometastases in the lungs [6]: attenuated | appearance of micrometastases in the lungs [6]: attenuated | appearance of macrometastases in the lungs ([6]; listed as MNTX): attenuated; also recorded: inhibition; also recorded: decrease in lung macrometastases | appearance of micrometastases in the lungs ([6]; listed as MNTX): attenuated; also recorded: inhibition | attenuation of tumor growth ([6]; infusion 10 mg/kg/day, wild-type mice injected with LLC cells): up to 90% | antiproliferation activity ([7]; MNTX alone, P<0.01 compared to control): possesses antiproliferation activity | enhancement of 5-FU's tumoricidal effect ([7]; with 5-FU 10 μM, P<0.05 compared to 5-FU 10 μM only): enhanced 5-FU's tumoricidal effect | attenuation of agonist induced PDGF receptor phosphorylation (PDGF receptor; MNTX pretreatment of EC): attenuated | reduction of LLC proliferation [8]: significantly reduced; also recorded: dose-dependent inhibition | attenuation of MS, DAMGO and VEGF stimulated HPMVEC proliferation ([1]; 100 nM MNTX, 100 nM agonist, 24 h): attenuated | inhibition of S1P, VEGF, PDGF, morphine and DAMGO induced EC proliferation [1, 12]: inhibited | inhibition of opioid- and growth factor-induced proliferation of endothelial cells [1, 13]: in a concentration dependent manner | attenuation of agonist induced VEGF receptor phosphorylation (VEGF receptor; MNTX pretreatment of EC): attenuated | angiogenesis and tumor growth, combination of opioid, opioid antagonist and anticancer agent (tumor): enhanced result | inhibition of VEGF induced migration of endothelial cells by the combination [9]: synergistically inhibit | attenuation of VEGF induced tyrosine phosphorylation of VEGF receptor 1 (VEGF receptor 1 (Flt-1)): attenuates | block of MS and DAMGO induced tyrosine phosphorylation of VEGF receptor 1 (Flt-1) (VEGF receptor 1 (Flt-1)): blocked | inhibition of MS, DAMGO and VEGF induced HPMVEC migration ([2]; 100 nM MNTX, 100 nM agonist, 18 hours): inhibited | inhibition of S1P, VEGF, PDGF, morphine and DAMGO induced EC migration [2, 12]: inhibited | inhibition of opioid- and growth factor-induced migration of endothelial cells [2, 13]: in a concentration dependent manner

CN1CC[C@]23c4c5ccc(O)c4O[C@H]2[C@@H](O)C=C[C@H]3[C@H]1C5 [morphine]
induction of proliferative retinopathy [10]: induced proliferative retinopathy | increase in F11 c-1 expression (Flk-1 expression): 10 fold | RhoA activation by agonist (RhoA): stimulate RhoA activation | RhoA activation by agonist (RhoA; listed as MS): stimulate RhoA activation | induction of tyrosine phosphorylation of VEGF receptor 2 (Flk-1) (VEGF receptor 2 (Flk-1)): induce tyrosine phosphorylation | induction of tyrosine phosphorylation of the S1P3 receptor (S1P3 receptor): induced tyrosine phosphorylation | induction of tyrosine phosphorylation of the PDGF receptor (PDGF receptor): induced tyrosine phosphorylation | agonist-induced EC proliferation [1]: induced proliferation | agonist-induced EC proliferation ([1]; listed as MS): stimulate HPMVEC proliferation | induction of tyrosine phosphorylation of the VEGF receptor (VEGF receptor): induced tyrosine phosphorylation | induction of tyrosine phosphorylation of VEGF receptor 1 (Flt-1) (VEGF receptor 1 (Flt-1)): induce tyrosine phosphorylation | agonist-induced EC migration (% migration) [2]: induced | agonist-induced EC migration (% migration) ([2]; listed as MS): induce HPMVEC migration

O=c1[nH]cc(F)c(=O)[nH]1 [5-FU, 5-fluorouracil]
inhibition of VEGF induced proliferation of endothelial cells by the combination [5]: synergistically inhibit | IC50 ([7]; Homo sapiens, SW480): ~10 µM

C[C@H]1CN(C[C@H](Cc2ccccc2)C(=O)NCC(=O)O)CC[C@@]1(C)c1cccc(O)c1 [alvimopan]
transpassage across the membrane [11]: some transpassage | tumor growth and angiogenesis (tumors): reduction in tumor growth and angiogenesis | angiogenesis and tumor growth, combination of opioid, opioid antagonist and anticancer agent (tumors): enhanced result | angiogenesis and tumor growth, combination of opioid, opioid antagonist and anticancer agent (tumor): enhanced result

VEGF
induction of serine/threonine phosphorylation of the mu-opioid receptor (mu-opioid receptor): induced serine/threonine phosphorylation | RhoA activation by agonist (RhoA): stimulate RhoA activation | agonist-induced EC proliferation [1]: stimulate HPMVEC proliferation; also recorded: induced proliferation | agonist-induced EC migration (% migration) [2]: induce HPMVEC migration; also recorded: induced

Bevacizumab: anti-VEGF mab (Avastin, Genentech)
inhibition of VEGF induced migration of endothelial cells by the combination [9]: synergistically inhibit

CCCCCCCCCCCCC/C=C/[C@@H](O)[C@@H](N)COP(=O)(O)O [S1P, sphingosine 1-phosphate]
induction of serine/threonine phosphorylation of the mu-opioid receptor (mu-opioid receptor): induced serine/threonine phosphorylation | RhoA activation by agonist (RhoA): activation | agonist-induced EC proliferation [1]: induced proliferation | agonist-induced EC migration (% migration) [2]: induced
